The values below are quoted from earlier work in patent US20120321587A1, “COMPOSITIONS AND METHODS OF USE PERTAINING TO INSECTICIDE” (priority 2009, published 2012).

This data set relates to aphids. To be noted: nymphs and adults.

`CCCCCCCCOC(=O)CC(C(=O)OCCCCCCCC)S(=O)(=O)O.[Na]` (centres unmarked) [sodium dioctyl sulfosuccinate]: the “efficacy in treating aphids” value is recorded as “primary compound responsible for the observed insecticidal activity”.
Regarding `CCCCCCCCCCCCOS(=O)(=O)[O-].[Na+]` [sodium lauryl sulfate], the “efficacy in treating aphids” value is “limited efficacy”.
